Tests used:
T7 RNA polymerase [1] = molecular target: T1, T7 RNA polymerase (Escherichia phage T7, UniProt P00573); conditions: 0.25 mM triphosphate; product of 100 nucleotides
Method: (§1) The reaction composition of T7 transcription may be the same as described in Ohtsuki et al., 2001. Details are as follows: 40 mM Tris-HCl (pH 8.0), 5 mM DTT, 24 mM MgCl2, 2 mM spermidine, 0.01% TritonX-100, 10 mM GMP, 1 mM NTPs, 0-0.25 mM 5IyTP, 0.2 μl/μl template DNA, and 2.5 U/μl T7 RNA polymerase (TaKaRa). After enzymatic reaction at 37° C. for 6 hours, each reaction product was purified by electrophoresis on an 8% polyacrylamide-7M urea gel.

T7 RNA polymerase [2] = molecular target: T1, T7 RNA polymerase; conditions: T7 transcription
Method: as §1
When T7 transcription reaction is performed in the presence of [α-^32P]ATP or [α-^32P]GTP, a nucleoside 3′-phosphate (Np) 5′-terminal to A or G is labeled with ^32P. Each gel-purified RNA was completely digested into Np by RNase T2 (Sigma). If 5Iy is introduced at residue 84 or 92, the nucleoside 3′-phosphate of 5Iy (5IyTp) is labeled with ^32P via [α-^32P]GTP, while if 5Iy is introduced at residue 87, 5IyTp is labeled via [α-^32P]ATP (FIG. 5, FIG. 6-b). For base composition analysis of 5Iy-containing RNAs, each of the completely digested products was separated by 2D-TLC and determined for each nucleotide content.
More specifically, to completely digest RNA, 0.75 μl RNase T2 solution (5 units/μl; 100 mM NaOAc pH 4.5, 10% glycerol) was added to 4.25 μl aqueous solution containing the labeled RNA and a 0.25 OD E. coli-derived tRNA mixture (Sigma), followed by overnight enzymatic reaction at 37° C. A part of the reaction solution was spotted onto a 10 cm×10 cm TLC plate (Funacell SF; Funakoshi Co., Ltd., Japan) and developed in two dimensions. Developing solutions for the first and second dimensions are isobutyric acid/ammonia/water (66:1:33 by volume) and 2-propanol/hydrochloric acid/water (70:15:15 by volume), respectively. The developed spots were detected and quantified using a bioimaging analyzer (BAS2500, Fuji Photo Film Co., Ltd., Japan).
Each value was calculated from the following equation. The theoretical numbers of nucleotides are in parentheses.

T7 RNA polymerase [3] = molecular target: T1, T7 RNA polymerase; conditions: for incorporation into RNA opposite s in the template: 1 mM, in competition with natural NTPs; for efficiency of transcription reaction: full-length 17-mer RNA, transcription using natural base pairing set to 100%; for misincorporation opposite natural nucleotides in the template: s-free control template
Method: The T7 transcription reaction was performed on 20 μl scale. The composition of T7 transcription is as follows: 40 mM Tris-HCl (pH 8.0), 5 mM DTT, 8 mM MgCl2, 2 mM spermidine, 0.01% TritonX-100, 10 mM GMP, 1 mM NTPs (N=A, G, C, U, Bio-yTP, Bio^2-yTP), 2 μCi [α-^32P]ATP, 0.5 μM double-stranded DNA, and 2.5 U/μl T7 RNA polymerase (TaKaRa) [Ohtsuki et al., 2001]. After enzymatic reaction at 37° C. for 3 hours, each reaction solution was supplemented with an equal volume of a 10M urea-containing TPE solution and warmed at 75° C. for 3 minutes to stop the reaction. Aliquot parts of the reaction solutions were then electrophoresed on a 20% polyacrylamide-7M urea gel and the [α-^32P]ATP-labeled reaction products were analyzed with a bioimaging analyzer (BAS2500, Fuji Photo Film Co., Ltd., Japan).

B-Raf RBD (GST-RBD) = B-Raf RBD (GST-RBD) (Homo sapiens, UniProt P15056 P15056:149-226); assay: filter; 2 nM RNA; binds B-Raf RBD but does not inhibit B-Raf RBD/Ras interaction; conditions: tags: GST fusion, expressed in E. coli; label: 32P 5'-end; pseudoknot (estimated)
B-Raf RBD (GST-RBD), sequence (P15056 149-226, one chain of several): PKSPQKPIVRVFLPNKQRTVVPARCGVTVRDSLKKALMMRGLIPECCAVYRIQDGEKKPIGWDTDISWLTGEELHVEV
Method: The binding efficiency (Binding %) to various concentrations of protein was determined for each RNA aptamer (2 nM) by a filter binding method and plotted in the figure.

Raf-1 RBD (GST-RBD) [4] = molecular target: T2, Raf-1 RBD (GST-RBD) (Homo sapiens, UniProt P04049 P04049:51-131); assay: EMSA; 1 XL binds 2 GST-RBD; higher activity than 9Ax2; conditions: tags: GST fusion, expressed in E. coli; 2 per XL dimer), stated; label: 32P 5'-end
Method: (§2) The product (XL) obtained by crosslinking reaction an equal concentration (0.1 µM) mixture of 9A(5Iy87) and Raf-1 RBD was purified from a gel and analyzed for binding between XL and GSTRBD by gel shift assay. As a control of RNA 9A dimer, RNA 9A molecules were also linked in tandem to newly prepare RNA 9A×2 (200 nucleotides in total length), followed by gel shift assay. RNA 9A×2 is an RNA molecule of 200 nucleotides in total length that has two essential regions of RNA 9A (residues 1-80) in its molecule. It was prepared by transcription reaction using T7 RNA polymerase (Epicentre) and subcloned into vector pCR®II-TOPO (Invitrogen).
(§3) Electrophoresis was performed at room temperature and at a constant voltage (150 V) for about 2 hours (gel size: 16 cm×16 cm×1 mm). The composition of electrophoresis buffer is as follows: 12.5 mM Tris and 125 mM Glycine. Each electrophoresed gel was dried using a gel dryer and analyzed with a bioimaging analyzer (BAS2500, Fuji Photo Film Co., Ltd., Japan).

Raf-1 RBD (GST-RBD) [5] = molecular target: T2, Raf-1 RBD (GST-RBD); assay: EMSA; binding to 2 GST-RBD lower than XL; conditions: tags: GST fusion, expressed in E. coli; 2 per XL dimer), stated; label: 32P 5'-end
Method: as §2, §3

Raf-1 RBD (GST-RBD) [6] = molecular target: T2, Raf-1 RBD (GST-RBD); assay: EMSA; no shift even at increased GST-RBD; conditions: tags: GST fusion, expressed in E. coli; 2 per XL dimer), stated; label: 32P 5'-end

T1 sequence (P00573 whole entry): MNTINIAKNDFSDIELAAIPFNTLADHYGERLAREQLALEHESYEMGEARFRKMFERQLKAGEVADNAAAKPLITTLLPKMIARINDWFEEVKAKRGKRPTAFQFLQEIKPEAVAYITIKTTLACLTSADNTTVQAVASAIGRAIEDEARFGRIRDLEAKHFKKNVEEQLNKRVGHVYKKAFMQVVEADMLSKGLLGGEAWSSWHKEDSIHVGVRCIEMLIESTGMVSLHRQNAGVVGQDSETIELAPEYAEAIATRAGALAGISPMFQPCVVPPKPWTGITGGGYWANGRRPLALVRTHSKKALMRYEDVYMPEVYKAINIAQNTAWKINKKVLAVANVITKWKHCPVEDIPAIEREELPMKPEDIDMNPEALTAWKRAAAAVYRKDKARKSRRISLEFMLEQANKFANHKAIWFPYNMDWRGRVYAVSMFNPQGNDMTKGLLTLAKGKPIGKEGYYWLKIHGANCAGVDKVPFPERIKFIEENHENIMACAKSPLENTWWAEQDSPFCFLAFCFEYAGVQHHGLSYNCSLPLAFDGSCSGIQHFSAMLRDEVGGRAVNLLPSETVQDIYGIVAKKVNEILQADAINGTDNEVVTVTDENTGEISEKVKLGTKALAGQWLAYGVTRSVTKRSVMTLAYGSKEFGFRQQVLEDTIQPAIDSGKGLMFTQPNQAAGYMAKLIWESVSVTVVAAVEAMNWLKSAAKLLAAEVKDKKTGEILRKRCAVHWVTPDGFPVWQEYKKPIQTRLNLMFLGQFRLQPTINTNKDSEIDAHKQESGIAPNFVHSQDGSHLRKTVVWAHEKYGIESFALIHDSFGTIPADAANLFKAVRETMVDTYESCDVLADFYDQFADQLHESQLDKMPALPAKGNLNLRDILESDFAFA

**Q.** Which “progress of transcription reaction with the unnatural triphosphate” value (T7 RNA polymerase [1]) does the source give for `O=c1[nH]cc(C#Cc2ccccc2)cc1[C@@H]1O[C@H](COP(=O)(O)OP(=O)(O)OP(=O)(O)O)[C@@H](O)[C@H]1O` [3-(β-D-ribofuranosyl)-5-(2-phenylethynyl)-pyridin-2(1H)-one 5′-triphosphate] here?
**A.** confirmed to proceed

**Q.** Which “misincorporated 5Iy, share of the total” value (T7 RNA polymerase [2]) does the source give for `O=c1[nH]cc(I)cc1[C@@H]1O[C@H](COP(=O)(O)OP(=O)(O)OP(=O)(O)O)[C@@H](O)[C@H]1O` [5IyTP, 3-(β-D-ribofuranosyl)-5-iodopyridin-2(1H)-one 5′-triphosphate] here?
**A.** less than 0.5%

**Q.** What about the “selectivity of incorporation opposite s in the template” value (T7 RNA polymerase [2]; s-containing template) of the same molecule?
**A.** ≥ 97%

**Q.** And the “progress of transcription reaction with the unnatural triphosphate” value (T7 RNA polymerase [1])?
**A.** proceeded efficiently

**Q.** With “Biotinylated 5-(3-amino-1-propenyl)-3-(β-D -ribofuranosyl)-2-pyridone 5′-triphosphate [Bio-yTP]” as the molecule, how does the “incorporation into RNA opposite s in the template” value (T7 RNA polymerase [3]) read?
**A.** competitively and selectively incorporated opposite s in the template

**Q.** And the “efficiency of transcription reaction” value (T7 RNA polymerase [3])?
**A.** about 50%

**Q.** What about the “misincorporation opposite natural nucleotides in the template” value (T7 RNA polymerase [3]) of the same molecule?
**A.** almost no misincorporation

**Q.** Which “incorporation into RNA opposite s in the template” value (T7 RNA polymerase [3]) does the source give for “Biotinylated 5-(3-amino-1-propynyl)-3-(β-D-ribofuranosyl)-2-pyridone 5′-triphosphate [Bio^2-yTP]” here?
**A.** competitively and selectively incorporated opposite s in the template

**Q.** And the “efficiency of transcription reaction” value (T7 RNA polymerase [3])?
**A.** about 50%

**Q.** What about the “misincorporation opposite natural nucleotides in the template” value (T7 RNA polymerase [3]) of the same molecule?
**A.** no misincorporation

B1: RNA 9A (ssRNA)
RNA: GGGAGUGGAGGAAUUCAUCGAGGCAUAUGUCGACUCCGUCUUCCUUCAAACCAGUUAUAAAUUGGUUUUAGCAUAUGCCUUAGCGACAGCAAGCUUCUGC
**Q.** Does B1 bind (B-Raf RBD (GST-RBD))?
**A.** binds

B2: RNA XL (UV-crosslinked dimer of 9A(5Iy87)) (ssRNA)
RNA 1: GGGAGUGGAGGAAUUCAUCGAGGCAUAUGUCGACUCCGUCUUCCUUCAAACCAGUUAUAAAUUGGUUUUAGCAUAUGCCUUAGCGACAGCAAGCUUCUGC
RNA 2: GGGAGUGGAGGAAUUCAUCGAGGCAUAUGUCGACUCCGUCUUCCUUCAAACCAGUUAUAAAUUGGUUUUAGCAUAUGCCUUAGCGACAGCAAGCUUCUGC
modifications: 5Iy at position 87, UV-crosslinked dimer
**Q.** Does B2 bind (Raf-1 RBD (GST-RBD) [4])?
**A.** binds

B3: RNA 9Ax2 (tandem 9A, 200 nt) (ssRNA)
RNA: GGGAGUGGAGGAAUUCAUCGAGGCAUAUGUCGACUCCGUCUUCCUUCAAACCAGUUAUAAAUUGGUUUUAGCAUAUGCCUUAGCGACAGCAAGCUUCUGCGGGAGUGGAGGAAUUCAUCGAGGCAUAUGUCGACUCCGUCUUCCUUCAAACCAGUUAUAAAUUGGUUUUAGCAUAUGCCUUAGCGACAGCAAGCUUCUGC
**Q.** Does B3 bind (Raf-1 RBD (GST-RBD) [5])?
**A.** binds

B4: RNA OC (ssRNA)
RNA: GGGAGUGGAGGAAUUCAUCGAGGCAUCUGGGAACCCUAUCUUGCUUUUGGUAGCUGUAUUCACCUGUAACAGCAUAUGCCUUAGCGACAGCAAGCUUCUGC
**Q.** Does B4 bind (Raf-1 RBD (GST-RBD) [6])?
**A.** no binding
